{"source": "paper PMC6934184", "about": "“Selective DNA-PKcs inhibition extends the therapeutic index of localized radiotherapy and chemotherapy” (The Journal of Clinical Investigation, 2019)", "molecular_target": "T1, MET D1228H (Homo sapiens, UniProt P08581, D1228H)", "T1 construct": "purchased Thermo Fisher Scientific (Life Technologies) SelectScreen", "T1 sequence (P08581 25-1390 D1228H)": "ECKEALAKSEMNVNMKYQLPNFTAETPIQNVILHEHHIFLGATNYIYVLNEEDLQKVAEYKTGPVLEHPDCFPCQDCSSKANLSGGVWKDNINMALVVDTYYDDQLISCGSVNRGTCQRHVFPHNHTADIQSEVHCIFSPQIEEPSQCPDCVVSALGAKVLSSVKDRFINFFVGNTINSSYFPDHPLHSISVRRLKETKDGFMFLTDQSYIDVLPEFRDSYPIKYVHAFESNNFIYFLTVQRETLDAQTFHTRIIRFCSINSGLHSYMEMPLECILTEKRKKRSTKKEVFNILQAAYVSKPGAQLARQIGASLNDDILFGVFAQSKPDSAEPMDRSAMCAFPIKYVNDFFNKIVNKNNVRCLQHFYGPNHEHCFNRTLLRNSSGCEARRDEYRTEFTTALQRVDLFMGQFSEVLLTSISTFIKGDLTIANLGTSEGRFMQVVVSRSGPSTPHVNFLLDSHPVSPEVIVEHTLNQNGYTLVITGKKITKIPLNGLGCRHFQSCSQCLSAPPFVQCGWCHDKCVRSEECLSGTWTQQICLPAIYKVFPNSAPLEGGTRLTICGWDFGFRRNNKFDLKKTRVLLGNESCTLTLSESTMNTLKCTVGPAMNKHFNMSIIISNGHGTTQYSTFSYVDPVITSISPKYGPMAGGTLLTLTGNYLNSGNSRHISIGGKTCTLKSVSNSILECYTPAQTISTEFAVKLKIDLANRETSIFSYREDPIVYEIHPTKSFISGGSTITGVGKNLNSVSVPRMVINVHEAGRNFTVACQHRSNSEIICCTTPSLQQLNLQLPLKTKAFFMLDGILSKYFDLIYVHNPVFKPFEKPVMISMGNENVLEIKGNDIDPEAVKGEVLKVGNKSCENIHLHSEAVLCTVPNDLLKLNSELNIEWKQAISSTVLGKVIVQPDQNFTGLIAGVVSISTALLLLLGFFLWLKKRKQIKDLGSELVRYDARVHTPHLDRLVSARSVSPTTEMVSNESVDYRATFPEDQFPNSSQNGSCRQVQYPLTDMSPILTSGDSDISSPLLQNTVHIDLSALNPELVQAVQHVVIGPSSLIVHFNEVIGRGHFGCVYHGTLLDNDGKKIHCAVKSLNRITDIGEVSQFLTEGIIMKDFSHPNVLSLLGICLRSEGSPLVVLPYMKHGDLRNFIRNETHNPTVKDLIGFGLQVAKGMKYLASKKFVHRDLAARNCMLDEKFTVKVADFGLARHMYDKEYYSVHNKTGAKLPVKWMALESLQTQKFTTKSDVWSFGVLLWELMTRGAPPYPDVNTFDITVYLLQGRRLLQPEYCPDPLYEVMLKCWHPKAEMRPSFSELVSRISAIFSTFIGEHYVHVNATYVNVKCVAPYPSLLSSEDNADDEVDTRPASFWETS", "assay": "SelectScreen LanthaScreen", "type": "binding", "conditions": "1 µM", "outline": "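SelectScreen broad panel; activity (Z'LYTE, Adapta) plus binding formats. ATP: Km app for CSF1R Z'LYTE; 10 for CAMK1 Adapta. Readout = % per kinase.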"}
{"smiles": "CN(C(=O)CN1CCOCC1)c1ccc2sc3c(-c4cccc5c(=O)cc(N6CC7CCC(C6)O7)oc45)cccc3c2c1", "note": "[NU5455]", "values": [{"measurement": "% displacement", "value": -1.5, "unit": "%"}]}
